The assay has as its system FMOC25_1 (patient-derived low-grade serous ovarian cancer cells). Kind of assay: drug sensitivity score (DSS3, normalised partial AUC of % inhibition dose-response) (DSS (score)); higher = more sensitive (stronger inhibition of viability); extreme values may be limits of the assay. As to conditions: 72 h; library: FO4B; assay format: 2D, 384-well, CellTiter-Glo. The essentials: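 Early-passage (under 10) patient-derived ovarian cancer cells were dispensed onto 384-well flat clear-bottom plates pre-plated with compounds at five concentrations spanning a 10,000-fold range, then incubated 72 h at 37 °C, 5% CO2. Viability was read with CellTiter-Glo, and the data were processed in Breeze. The drug sensitivity score is a partial area under the percent-inhibition dose-response curve divided by the log of the upper asymptote, with higher values meaning greater sensitivity.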
With `CCN(CC)C(=S)SSC(=S)N(CC)CC` [Disulfiram], the drug sensitivity score came out at 3.7.
The value for `COc1cc(F)c(F)c(Nc2ccc(I)cc2F)c1NS(=O)(=O)C1(C[C@H](O)CO)CC1` [Refametinib] was 14.8; that for `O=C(CCBr)N1CCN(C(=O)CCBr)CC1` [Pipobroman] was 1.6; that for `COc1cc(C(=O)NC2CCN(C)CC2)c(F)cc1Nc1ncc2c(n1)N(C1CCCC1)CC(F)(F)C(=O)N2C` [TAK-960] was 0.
With `C[C@]12O[C@H](C[C@]1(O)CO)n1c3ccccc3c3c4c(c5c6ccccc6n2c5c31)CNC4=O` [Lestaurtinib] the figure was 5.3; with `CC[C@@]1(O)C(=O)OCc2c1cc1n(c2=O)Cc2cc3ccccc3nc2-1` [Camptothecin], 17; with `CN(C[C@@H]1COCCO1)S(=O)(=O)Nc1ccc2ccc3ncc(-c4cnn(C)c4)cc3c(=O)c2c1` [MK-2461], 2.8.
`CNNCc1ccc(C(=O)NC(C)C)cc1` [Procarbazine] registered a drug sensitivity score of 0.
The value for `CS(=O)(=O)N1CCc2c(-c3cnc(N)nc3)nc(N3CCOCC3)nc21` was 10.5.
The value for `CN[C@@H](C)C(=O)N[C@H](C(=O)N1CCC[C@H]1c1nc(C(=O)c2ccc(F)cc2)cs1)C1CCCCC1` [LCL161] was 7.7; that for `COCC(=O)NC/C=C/c1ccc2ncnc(Nc3ccc(Oc4ccc(C)nc4)c(C)c3)c2c1` was 3.2; that for `COc1cccc2cc(-c3nc([C@H]4CC[C@H](C(=O)O)CC4)n4ncnc(N)c34)[nH]c12` [OSI-027] was 8.2.
The value for `O=C(O)c1ccc(Nc2ncc3c(n2)-c2ccc(Cl)cc2C(c2c(F)cccc2F)=NC3)cc1` [MLN-8054] was 0.
In the case of `c1ccc([C@H]2CN3CCSC3=N2)cc1` [Levamisole], the drug sensitivity score is 0.
The value for `O=C(Nc1cccc(Cl)c1)Nc1ncc(CCNc2ncnc3ccsc23)s1` [SNS-314] was 0.4; that for `O=C1NC(=O)/C(=C/c2ccc3nccc(-c4ccncc4)c3c2)S1` was 9.8.
With `Cc1nc(C(=O)NCC(=O)O)c(O)c2ccc(Oc3ccccc3)cc12` [FG-4592], the drug sensitivity score was determined as 0.
With `Cn1c(CCCC(=O)O)nc2cc(N(CCCl)CCCl)ccc21` [Bendamustine] the figure was 0; with `Cc1ccccc1C(C(=O)NC1CCCCC1)N(C(=O)Cn1ccnc1C)c1cccc(F)c1` (stereo not given) [AGI-5198], 0.
With `CC(=O)NCC(=O)N1[C@@H]2CC[C@H]1c1ccc(Nc3ncc(C(F)(F)F)c(NC4CCC4)n3)cc12` the figure was 9.1; with `CN(C)c1nc(N(C)C)nc(N(C)C)n1` [Altretamine], 0; with `O=C(Nc1cccc(C(F)(F)F)c1)Nc1cc(S(=O)(=O)NC2CC2)ccc1-c1ccsc1` [AGI-6780], 0.4.
The value for `CS(=O)(=O)c1ccc(C2=C(c3ccccc3)C(=O)OC2)cc1` [Rofecoxib] was 0; that for `CCNC(=O)Nc1ccc(-c2nc3c(c(N4CCOC[C@@H]4C)n2)CCN(C2COC2)C3)cc1` [RG-7603] was 7.8.
In the case of `CNC(=O)c1ccc(-c2cnc3ncc(Cc4ccc5ncccc5c4)n3n2)cc1F` [NVP-INC280], the drug sensitivity score is 0.
The value for `Cc1[nH]c(/C=C2\C(=O)Nc3ccccc32)c(C)c1CCC(=O)O` [Orantinib] was 2.6.
With `CC(C)NC(=O)COc1cccc(-c2nc(Nc3ccc4[nH]ncc4c3)c3ccccc3n2)c1` [SLx-2119] the figure was 2.7; with `Cc1nc(N)sc1-c1ccnc(Nc2ccc(N3CCOCC3)cc2)n1` [CYC-116], 6.4.
With `CC(C)CC(=O)Nc1n[nH]c2c1CN(C(=O)C1CCN(C)CC1)C2(C)C` the figure was 5.5; with `CS(=O)(=O)OCCCCOS(C)(=O)=O` [Busulfan], 0.
In turn, `C[C@]12CC[C@@H]3c4ccc(OC(=O)N(CCCl)CCCl)cc4CC[C@H]3[C@@H]1CC[C@@H]2O` [Estramustine] displayed a drug sensitivity score of 0.
`c1ccc2c(CCNc3ccc(Nc4ccncc4)cc3)c[nH]c2c1` [Serdemetan] displayed a drug sensitivity score of 3.4.
In the case of `Cn1cc(-c2ccc3nnc(C(F)(F)c4ccc5ncccc5c4)n3n2)cn1`, the drug sensitivity score worked out at 0.
For `CN(c1ccccc1CNc1nc(Nc2ccc3c(c2)CC(=O)N3)ncc1C(F)(F)F)S(C)(=O)=O`, the drug sensitivity score stood at 7.
The value for `Cn1c(Nc2ccc(C(F)(F)F)cc2)nc2cc(Oc3ccnc(-c4ncc(C(F)(F)F)[nH]4)c3)ccc21` [RAF265] was 8.1.
In the case of `NC(=O)Nc1sc(-c2ccc(F)cc2)cc1C(N)=O` [TPCA-1], the drug sensitivity score was determined as 2.9.
With `CCOc1cc2ncc(C#N)c(Nc3ccc(F)c(Cl)c3)c2cc1NC(=O)/C=C/CN(C)C` [Pelitinib] the figure was 13.1.
Consider `CCn1nnc2c(N3CCOCC3)nc(-c3ccc(NC(=O)Nc4ccc(C(=O)N5CCN(C)CC5)cc4)cc3)nc21` [PKI-402], for which the drug sensitivity score turned out to be 19.1.
As to `CC(C)Oc1cc(Nc2nc(N[C@@H](C)c3ccc(F)cn3)ncc2Cl)n[nH]1` [AZ-23], the drug sensitivity score is 0.
The compound `CCN1CCN(Cc2ccc(-c3cc4c(N[C@H](C)c5ccccc5)ncnc4[nH]3)cc2)CC1` [NVP-AEE788] gave a drug sensitivity score of 6.
As for `CCc1cc(Nc2nccc(-c3c(-c4ccc(OC)c(C(=O)Nc5c(F)cccc5F)c4)nc4ccccn34)n2)c(OC)cc1N1CCC(N2CCN(S(C)(=O)=O)CC2)CC1`, the drug sensitivity score was 3.9.
With `COCC[n+]1c2c(n(Cc3cnccn3)c1C)C(=O)c1ccccc1C2=O` [YM155] the figure was 35.5; with `COc1cc(O)c2c(c1)/C=C/C[C@H](O)[C@H](O)C(=O)/C=C\C[C@H](C)OC2=O` [(5Z)-7-Oxozeaenol], 0; with `COc1ccc(Cl)c(Nc2nc3ccccc3nc2NS(=O)(=O)c2cccc(NC(=O)C(C)(C)N)c2)c1` [Pilaralisib], 2.2.
The value for `OCCn1cc(-c2cnc3nnn(Cc4ccc5ncccc5c4)c3n2)cn1` was 0; that for `C[C@@H]1C[C@H]2O[C@@H]2/C=C\C=C\C(=O)Cc2c(Cl)c(O)cc(O)c2C(=O)O1` [Radicicol] was 3.2; that for `CNC(=O)c1ccc(N2C(=S)N(c3cnc(C#N)c(C(F)(F)F)c3)C(=O)C23CCC3)cc1F` [ARN 509] was 0.
With `Cc1c(NC(=O)OC[C@@H]2COCCN2)cn2ncnc(Nc3ccc4c(cnn4Cc4cccc(F)c4)c3)c12` the figure was 9.1; with `N[C@@H](Cc1ccc(N(CCCl)CCCl)cc1)C(=O)O` [Melphalan], 0; with `O=C(O)CCCc1ccc(N(CCCl)CCCl)cc1` [Chlorambucil], 0.
Compound `CCCNC(=O)Nc1ccc(Oc2ncnc3cc(OC)c(OC)cc23)cc1Cl` [KRN-633] registered a drug sensitivity score of 0.
The value for `Cn1c(=O)c(F)c(Nc2ccc(I)cc2F)c2c(=O)n(C[C@@H](O)CO)cnc21` [TAK-733] was 13.2; that for `Cn1nccc1Nc1nccc(-c2ccn([C@H](CO)c3ccc(Cl)c(F)c3)c(=O)c2)n1` [GDC-0994] was 6; that for `C=CCn1c(=O)c2cnc(Nc3ccc(N4CCN(C)CC4)cc3)nc2n1-c1cccc(C(C)(C)O)n1` [MK1775] was 11.5.
With `N#Cc1c(Oc2ccc(F)c(NC(=O)Cc3cccc(C(F)(F)F)c3)c2)ccc2nc(NC(=O)C3CC3)sc12` [TAK-632] the figure was 4.4; with `CNC(=O)c1cccc(-c2ccc3c(N4CCOC[C@@H]4C)nc(N4CCOC[C@@H]4C)nc3n2)c1` [AZD2014], 20.5.
With `CNC(=O)c1ccc(N2C(=S)N(c3ccc(C#N)c(C(F)(F)F)c3)C(=O)C23CCC3)cc1F` [RD162] the figure was 0; with `O=c1cc(N2CCOCC2)oc2c(-c3ccccc3)cccc12`, 9.1.
For the compound `S=P(N1CC1)(N1CC1)N1CC1` [Thio-TEPA], the drug sensitivity score was found to be 0.7.
The value for `O=C(c1ccc(/C=C/c2n[nH]c3ccccc23)cc1)N1CCNCC1` [KW-2449] was 0; that for `CCCCC/C=C/C=C1/C(=O)C=C[C@@H]1C/C=C\CCCC(=O)O` [15D-PGJ2] was 0.
With `Cc1cc(C(=O)NOCCO)c(Nc2ccc(I)cc2F)n(C)c1=O` [AZD-8330], the drug sensitivity score stood at 22.2.
The value for `Oc1c2ccccc2c2c3c(cccc13)N=N2` was 4.3; that for `CN(N=O)C(=O)N[C@@H](C=O)[C@@H](O)[C@H](O)[C@H](O)CO` [Streptozocin] was 0.
The value for `COc1ccc(-c2cc3c(C)nc(N)nc3n([C@H]3CC[C@H](OCCO)CC3)c2=O)cn1` was 23.8.

Values taken from the supplement of paper PMC9938120.
